Assay results from patent US6465176B1, “Method for identifying compounds RNA/RNA binding protein interactions” (Message Pharmaceuticals, Inc., priority 1998, dated 2002).
Values belong to the compound of their own block, whether it stands above or below them.

Columns and labels:
[1] = test system: His RNA / RNA binding protein; test: Filter binding competition assay, His RNA; settings: increasing concentrations of unlabeled RNA
Protocol: (§1) All binding reactions were performed in 96-well v-bottom plates in a final volume of 10 μl. The assays were constituted and performed as described below. Specifically, assays were performed by (1) forming a binding solution including RNA molecules, 7.5 mM BTP at pH 8.5, 10 mM KCl, 5 mM MgCl2, 0.2 mM DTT, and 10% glycerol, (2) heating the binding solution to denature the RNA molecules, (3) cooling the binding solution, (4) adding RNA binding proteins to the binding solution, (5) loading the binding solution onto a filter, and (6) detecting the amount RNA retain on the filter.
To more fully test the filter assay, competitions were performed with U1 and His RNAs as well. U1 RNA has the sequence AAUCCAUUGCAC UCCGGAUUU (SEQ ID NO:10; M14587). His RNA has the sequence […] (SEQ ID NO:11; X57138). […] The results of the U1 and His filter assay competitions reflect the ability of the assay to detect low affinity as well as higher affinity binding interactions.
Competition studies have been performed using the filter assay in which unlabeled wild-type or mutant RNA is added to the reaction at 100 to 10,000 times the concentration of ^32P-RNA to compete for the protein binding of the radiolabeled RNA. […] In this case, the mutant RNA has a weak binding affinity for the RNA binding protein. […]

[2] = test system: U1 RNA / RNA binding protein (K562 extract); test: Filter binding competition assay, U1 RNA; settings: increasing concentrations of unlabeled RNA
Description: FIG. 2 is a graph of the amount of radioactively labeled RNA retained on a filter (expressed in percent of the amount of RNA retained on a filter in a reference binding solution) following loading of various binding solutions. All of the binding solutions contained radioactively labeled U1 RNA either alone or including various other components. The first two columns represent binding solutions without RNA binding protein. The remaining columns represent binding solution containing RNA binding protein (K562 extract). […] In this instance, the U1 mutant interacts with less affinity than does the wild type sequence.
as §1
To more fully test the filter assay, competitions were performed with U1 and His RNAs as well. U1 RNA has the sequence AAUCCAUUGCAC UCCGGAUUU (SEQ ID NO:10; M14587). His RNA has the sequence […] […]

[3] = test system: IRE RNA / RNA binding protein (K562 protein extract); test: High throughput filter binding assay, IRE RNA with K562 protein extract; settings: increasing concentrations: hemin 1 to 100 μM, FeCl3 and desferroxiamine 1 μM to 1 mM
Description: FIG. 3 is a graph of the amount of radioactively labeled RNA retained on a filter (expressed in percent of the amount of RNA retained on a filter in a reference binding solution) following loading of various binding solutions. All of the binding solutions contained radioactively labeled IRE RNA either alone or including various other components. The first column represents a binding solution without RNA binding protein. The remaining columns represent binding solution containing RNA binding protein (K562 extract).
FIG. 5 is a graph of the amount of radioactively labeled RNA retained on a filter (expressed in percent of the amount of RNA retained on a filter in a reference binding solution) following loading of various binding solutions. Alternate columns correspond to binding solutions containing radioactively labeled AUUUA RNA or IRE RNA, either alone or including various other components. The first two column represents binding solutions without RNA binding protein. The remaining columns represent binding solution containing RNA binding protein (K562 extract). Columns 5 through 40 correspond to binding solutions including the indicated amount of the indicated test compound.
as §1, with “filter. […]” for “filter.”
Binding assays were performed with wild-type IRE RNA and K562 protein extract in the presence of sources of iron or iron chelators to determine the ability of the filter assay to detect the modulation of binding interactions by small molecules. […] The reactions were analyzed by gel shifts to visualize the results of the filter assay. […]

[4] = test system: AUUUA RNA / RNA binding protein (K562 extract); test: High throughput filter binding assay, 32P-labeled AUUUA RNA with K562 protein extract (exploratory library screen)
Description: FIG. 4 is a graph of the amount of radioactively labeled RNA retained on a filter (expressed in percent of the amount of RNA retained on a filter in a reference binding solution) following loading of various binding solutions. All of the binding solutions contained radioactively labeled AUUUA RNA either alone or including various other components. The first column represents a binding solution without RNA binding protein. The remaining columns represent binding solution containing RNA binding protein (K562 extract). Columns 3 through 8 correspond to binding solutions including the indicated test compound.
as §1
The library was initially screened at 10 μM against ^32P-labeled AUUUA RNA. Several methods of introducing the compounds into the binding reaction were tested. Initially the compounds were co-incubated with the RNA and protein, producing modest results. Next, preincubation with either the protein extract or the RNA was tried with improved results.
Seventeen compounds were chosen for further analysis at 100 nM, 1 μM and 10 μM using both AUUUA and IRE RNAs based on the results from three screening efforts (Exps. 29-31). Table 1 summarizes the results from these compounds at 10 μM. The results are also shown graphically in FIG. 4. […] Compounds D9 and H2, chosen as negative controls from the initial screening, continued to have no effect in the dose dependent screen (Exp. 33) and were identified as vehicle controls.
A 96 member random compound library was screened with the disclosed high throughput assay. The compounds were initially screened at 10 μM against ^32P-labeled AUUUA RNA. […] Seventeen compounds were chosen for further analysis at 100 nM, 1 μM and 10 μM using both AUUUA and IRE RNA molecules to determine if any selectivity of the compounds could be detected. […] Gel shifts of these compounds using AUUUA RNA confirmed the activity of the inhibitors.

TNF-α production = settings: previously shown; cited from earlier work
[5] = compound 10 μM, K562 extract, RNA & K562 = 100.00

Compound: His wild-type RNA: His RNA, sequence AAAAAGGCUCUUUUCAGAGCCACCCA (SEQ ID NO:11) (listed as RNA, chemistry not given here)
- competition by unlabeled RNA for binding of labeled His RNA (filter assay) [1]: concentration dependent inhibition of binding

Compound: U1 wild-type RNA: U1 RNA, sequence AAUCCAUUGCAC UCCGGAUUU (SEQ ID NO:10) (AAUCCAUUGCACUCCGGAUUU; listed as RNA, chemistry not given here)
- competition by unlabeled RNA for binding of labeled U1 RNA (filter assay) [2]: concentration dependent inhibition of binding

Compound: [Cl][Fe]([Cl])[Cl] [FeCl3]
- modulation of IRE/protein binding by small molecules [3]: concentration-dependent inhibition of binding

Compound: CC(=O)N(O)CCCCCNC(=O)CCC(=O)N(O)CCCCCNC(=O)CCC(=O)N(O)CCCCCN [Desferroxiamine, desferroxiamine]
- modulation of IRE/protein binding by small molecules [3]: did not change the amount IRE/protein complex formed

Compound: hemin
- modulation of IRE/protein binding by small molecules [3]: concentration-dependent inhibition of binding

- Avg. % (labeled RNA retained on filter, average of Experiments #29-#31 and #33) ([4]; compound 10 μM, K562 extract): 111.00%
- Labeled RNA retained on filter, percent of RNA & K562 reference, Experiment #29 [4, 5]: 114.53%
- Labeled RNA retained on filter, percent of RNA & K562 reference, Experiment #30 [4, 5]: 66.94%
- Labeled RNA retained on filter, percent of RNA & K562 reference, Experiment #31 [4, 5]: 127.28%
- Labeled RNA retained on filter, percent of RNA & K562 reference, Experiment #33 [4, 5]: 135.24%
Compound: C/C(=N\NC(=N)N)c1cc(NC(=O)CCCCCCCCC(=O)Nc2cc(/C(C)=N/NC(=N)N)cc(/C(C)=N/NC(=N)N)c2)cc(/C(C)=N/NC(=N)N)c1 [Compound G10, CNI-1493]
- effect on counts over the 4 experiments ([4]; 10 μM): substantial increase in counts in 3 of the 4 experiments
- effect on TNF-α production (TNF-α production): post-transcriptionally inhibit TNF-α production
